Laboratory results from patent US20250145594A1, “MODULATORS OF THE INTEGRATED STRESS PATHWAY” (Calico Life Sciences LLC, priority 2020, published 2025).

tested on: ATF4 luciferase reporter in HEK293T cells; experiment: ATF4-Luc assay (in vitro model of VWMD); format: cell-based, human; conditions: Homo sapiens, HEK-293T, 7 h, HEK293T cells carrying the ATF4 luciferase reporter, 1 μg/mL tunicamycin, One Glo luminescence
Summary of the method: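 Stable HEK293T line expressing firefly luciferase behind the human ATF4 5′-UTR, treated with 1 μg/mL tunicamycin plus compound for 7 hours. Luminescence read with One Glo; EC50 determined.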

First: O=C(NC12CC(n3cc(OCCCC(F)(F)F)cn3)(C1)C2)[C@H]1C[C@@H](O)c2cc(C(F)(F)F)c(F)cc2O1 [Compound 641, (2R,4R)-7-fluoro-4-hydroxy-N-{3-[4-(4,4,4-trifluorobutoxy)-1H-pyrazol-1-yl]bicyclo[1.1.1]pentan-1-yl}-6-(trifluoromethyl)-3,4-dihydro-2H-1-benzopyran-2-carboxamide]
Second: O=C(NC12CC(n3cc(OCCCC(F)(F)F)cn3)(C1)C2)[C@H]1C[C@H](O)c2cc(C(F)(F)F)c(F)cc2O1 [Compound 642, (2R,4S)-7-fluoro-4-hydroxy-N-{3-[4-(4,4,4-trifluorobutoxy)-1H-pyrazol-1-yl]bicyclo[1.1.1]pentan-1-yl}-6-(trifluoromethyl)-3,4-dihydro-2H-1-benzopyran-2-carboxamide]
The EC50 of the first is lower: less than 0.01 µM for the first, 0.01 to 0.05 µM for the second. The first is the more potent here.

`O=C(CO[C@H]1C[C@@H](OC(F)(F)F)C1)NC12CC(NC(=O)[C@H]3C[C@H](O)c4cc(C(F)(F)F)c(F)cc4O3)(C1)C2` [Compound 643, (2R,4S)-7-fluoro-4-hydroxy-N-[3-(2-{[(1s,3S)-3-(trifluoromethoxy)cyclobutyl]oxy}acetamido)bicyclo[1.1.1]pentan-1-yl]-6-(trifluoromethyl)-3,4-dihydro-2H-1-benzopyran-2-carboxamide] and `O=C(CO[C@H]1C[C@@H](OC(F)(F)F)C1)NC12CC(NC(=O)[C@H]3C[C@@H](O)c4cc(C(F)(F)F)c(F)cc4O3)(C1)C2` [Compound 644, (2R,4R)-7-fluoro-4-hydroxy-N-[3-(2-{[(1s,3S)-3-(trifluoromethoxy)cyclobutyl]oxy}acetamido)bicyclo[1.1.1]pentan-1-yl]-6-(trifluoromethyl)-3,4-dihydro-2H-1-benzopyran-2-carboxamide] cannot be ordered by EC50: less than 0.01 µM for the first, less than 0.01 µM for the second.

`O=C(CO[C@H]1C[C@@H](OC(F)(F)F)C1)N[C@@H]1C[C@@H]2C[C@H]1C[C@H]2NC(=O)[C@H]1C[C@@H](O)c2cc(C(F)(F)F)c(F)cc2O1` [Compound 645, (2R,4R)-7-fluoro-4-hydroxy-N-[(1S,2R,4S,5R)-5-(2-{[(1s,3S)-3-(trifluoromethoxy)cyclobutyl]oxy}acetamido)bicyclo[2.2.1]heptan-2-yl]-6-(trifluoromethyl)-3,4-dihydro-2H-1-benzopyran-2-carboxamide] and `O=C(CO[C@H]1C[C@@H](OC(F)(F)F)C1)N[C@H]1C[C@H]2C[C@@H]1C[C@@H]2NC(=O)[C@H]1C[C@@H](O)c2cc(C(F)(F)F)c(F)cc2O1` [Compound 646, (2R,4R)-7-fluoro-4-hydroxy-N-[(1R,2S,4R,5S)-5-(2-{[(1s,3R)-3-(trifluoromethoxy)cyclobutyl]oxy}acetamido)bicyclo[2.2.1]heptan-2-yl]-6-(trifluoromethyl)-3,4-dihydro-2H-1-benzopyran-2-carboxamide] cannot be ordered by EC50: less than 0.01 µM for the first, less than 0.01 µM for the second.

`O=C(CO[C@H]1C[C@@H](OC(F)(F)F)C1)NC12CCC(NC(=O)[C@H]3C[C@@H](O)c4cc(C(F)(F)F)c(F)cc4O3)(CC1)C[C@@H]2O` [Compound 647, (2R,4R)-7-fluoro-4-hydroxy-N-[(3S)-3-hydroxy-4-(2-{[(1s,3R)-3-(trifluoromethoxy)cyclobutyl]oxy}acetamido)bicyclo[2.2.2]octan-1-yl]-6-(trifluoromethyl)-3,4-dihydro-2H-1-benzopyran-2-carboxamide] and `O=C(NC12CC(c3cc(OCCCOC(F)(F)F)ncn3)(C1)C2)[C@H]1C[C@@H](O)c2cc(Cl)c(F)cc2O1` [Compound 649, (2R,4R)-6-chloro-7-fluoro-4-hydroxy-N-(3-{6-[3-(trifluoromethoxy)propoxy]pyrimidin-4-yl}bicyclo[1.1.1]pentan-1-yl)-3,4-dihydro-2H-1-benzopyran-2-carboxamide] cannot be ordered by EC50: less than 0.01 µM for the first, less than 0.01 µM for the second.

`O=C(NC12CC(c3cc(OCCCOC(F)(F)F)ncn3)(C1)C2)[C@H]1C[C@@H](O)c2cc(Cl)ccc2O1` [Compound 648, (2R,4R)-6-chloro-4-hydroxy-N-(3-{6-[3-(trifluoromethoxy)propoxy]pyrimidin-4-yl}bicyclo[1.1.1]pentan-1-yl)-3,4-dihydro-2H-1-benzopyran-2-carboxamide] and `O=C(NC12CC(n3cc4cc(COCC(F)(F)F)ccc4n3)(C1)C2)[C@H]1C[C@@H](O)c2cc(Cl)ccc2O1` [Compound 650, (2R,4R)-6-chloro-4-hydroxy-N-(3-{5-[(2,2,2-trifluoroethoxy)methyl]-2H-indazol-2-yl}bicyclo[1.1.1]pentan-1-yl)-3,4-dihydro-2H-1-benzopyran-2-carboxamide] cannot be ordered by EC50: less than 0.01 µM for the first, less than 0.01 µM for the second.

First: O=C(NC12CC(n3cc4cc(COCC(F)(F)F)ccc4n3)(C1)C2)[C@H]1C[C@@H](O)c2cc(Cl)c(F)cc2O1 [Compound 651, (2R,4R)-6-chloro-7-fluoro-4-hydroxy-N-(3-{5-[(2,2,2-trifluoroethoxy)methyl]-2H-indazol-2-yl}bicyclo[1.1.1]pentan-1-yl)-3,4-dihydro-2H-1-benzopyran-2-carboxamide]
Second: COc1ccc2nn(C34CC(NC(=O)C5CNc6cc(C(F)(F)F)c(F)cc6O5)(C3)C4)cc2c1 (centres unmarked) [Compound 653, 7-fluoro-N-[3-(5-methoxy-2H-indazol-2-yl)bicyclo[1.1.1]pentan-1-yl]-6-(trifluoromethyl)-3,4-dihydro-2H-1,4-benzoxazine-2-carboxamide]
The EC50 of the first is lower: less than 0.01 µM for the first, 0.05 to 0.25 µM for the second.

`COc1ccc2nn(C34CCC(NC(=O)[C@H]5C[C@@H](O)c6cc(Cl)ccc6O5)(C3)C4)cc2c1` [Compound 652, (2R,4R)-6-chloro-4-hydroxy-N-[4-(5-methoxy-2H-indazol-2-yl)bicyclo[2.1.1]hexan-1-yl]-3,4-dihydro-2H-1-benzopyran-2-carboxamide] and `COc1ccc2nn(C34CC(NC(=O)C5CNc6cc(C(F)(F)F)c(F)cc6O5)(C3)C4)cc2n1` (centres unmarked) [Compound 654, 7-fluoro-N-[3-(5-methoxy-2H-pyrazolo[4,3-b]pyridin-2-yl)bicyclo[1.1.1]pentan-1-yl]-6-(trifluoromethyl)-3,4-dihydro-2H-1,4-benzoxazine-2-carboxamide] fall in the same range of EC50: 0.01 to 0.05 µM for the first, 0.01 to 0.05 µM for the second.
